Measurements reported in patent US20050234111A1, “D-homo-17-chlor-16(17)-ene steroids” (priority 2004, published 2005).

target: T1, androgen receptor (Rattus norvegicus, UniProt P15207); assay: Measurement of the androgen receptor binding affinity (competitive binding with 3H-Metribolone tracer in prostate cytosol); details: prostate cytosol of the castrated rat; tracer 3H-Metribolone; reference substance DHT = 100%; 0-4° C., 18 hours
T1 construct: on receptors in cystosol from animal target organs; from tissue; host or cells: prostate cytosol of castrated rat
T1 sequence (P15207 1-902): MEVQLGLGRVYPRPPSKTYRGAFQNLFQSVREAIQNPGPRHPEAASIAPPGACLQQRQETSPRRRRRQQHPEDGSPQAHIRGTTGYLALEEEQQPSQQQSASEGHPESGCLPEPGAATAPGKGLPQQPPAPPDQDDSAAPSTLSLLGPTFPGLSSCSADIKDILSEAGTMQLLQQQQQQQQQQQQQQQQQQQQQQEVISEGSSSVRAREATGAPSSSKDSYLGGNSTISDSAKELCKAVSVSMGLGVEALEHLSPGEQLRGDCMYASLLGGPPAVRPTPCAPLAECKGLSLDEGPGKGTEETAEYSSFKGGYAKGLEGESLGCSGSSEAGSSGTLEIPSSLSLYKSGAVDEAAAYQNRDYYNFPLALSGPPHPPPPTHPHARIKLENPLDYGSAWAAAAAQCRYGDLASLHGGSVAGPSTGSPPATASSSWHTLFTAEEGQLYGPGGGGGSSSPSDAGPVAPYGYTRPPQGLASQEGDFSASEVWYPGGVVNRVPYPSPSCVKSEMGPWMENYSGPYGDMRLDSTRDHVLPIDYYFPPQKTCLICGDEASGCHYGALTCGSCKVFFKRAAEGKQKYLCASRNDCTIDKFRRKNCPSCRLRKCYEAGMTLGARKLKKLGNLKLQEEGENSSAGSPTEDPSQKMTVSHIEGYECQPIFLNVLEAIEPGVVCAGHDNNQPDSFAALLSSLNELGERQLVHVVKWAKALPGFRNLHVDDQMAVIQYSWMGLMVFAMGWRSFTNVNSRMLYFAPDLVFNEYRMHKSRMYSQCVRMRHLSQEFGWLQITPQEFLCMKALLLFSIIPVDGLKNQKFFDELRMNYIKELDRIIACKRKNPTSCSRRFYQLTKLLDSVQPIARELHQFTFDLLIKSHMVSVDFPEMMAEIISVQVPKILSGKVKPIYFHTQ
Description: Measurement of the androgen receptor binding affinity:
The receptor binding affinity was determined by competitive binding of a specifically binding 3H-labeled hormone (tracer) and the compound to be tested on receptors in cystosol from animal target organs. In this case, receptor saturation and reaction equilibrium were desired.
The tracer and increasing concentrations of the compound to be tested (competitor) were co-incubated at 0-4° C. over 18 hours with the receptor-containing cytosol fraction. After separation of the unbonded tracer with carbon-dextran suspension, the receptor-bonded tracer portion was measured for each concentration and the IC50 was determined from the concentration series.
The following incubation conditions were selected:
Prostate cytosol of the castrated rat; prostates stored at −30° C.;

| SMILES | RBA % (relative molar binding affinity) |
| --- | --- |
| C[C@]12CC[C@H]3[C@@H](CCC4=CC(=O)CC[C@@H]43)[C@@H]1CC=C(Cl)[C@@H]2O [Compound 17, 17-Chloro-17aβ-hydroxy-17a-homo-estra-4,16-dien-3-one] | 80% |
| CC1CC2=CC(=O)CCC2C2CCC3(C)C(O)C(Cl)=CCC3C12 (stereo not drawn) [Compound 18, 17-Chloro-17aβ-hydroxy-7α-methyl-17a-homo-estra-4,16-dien-3-one] | 105% |
| C[C@]12CC[C@H]3[C@@H](CCC4=C(C(F)(F)F)C(=O)CC[C@@]43C)[C@@H]1CC=C(Cl)[C@@H]2O [Compound 9, 17-Chloro-17aβ-hydroxy-4-trifluoromethyl-17a-homoandrosta-4,16-dien-3-one] | 51% |
| CC12CCC3C4CCC(=O)C(O)=C4CCC3C1CC=C(Cl)C2O (centres unmarked) [Compound 21, 17-Chloro-4,17aβ-dihydroxy-17a-homo-estra-4,16-dien-3-one] | 70% |
| CC1CC2=CC(=O)CCC2(C)C2CCC3(C)C(O)C(Cl)=CCC3C12 (stereo not drawn) [Compound 2, 17-Chloro-17aβ-hydroxy-7α-methyl-17a-homoandrosta-4,16-dien-3-one] | 46% |
